Here are results for four compounds from patent US4959493A, “Carboxycyclopropylglycine and process for producing the same” (Suntory Limited, priority 1987, dated 1990).

Like-named read-outs stand apart in the source and are kept apart here.

Series [1] deals with motoneurons in the isolated spinal cord of a neonatal rat. In words: Depolarization of motoneurons in the isolated spinal cord of a neonatal rat (extracellular records, Evans and Watkins method). It is filed as cell-based. Conditions: for Effect of Mg++ ions on depolarizing activity: in the presence of Mg++ ions; for minimal effective concentration: read-out: MEC (minimum effective concentration for causing depolarizations of motoneurons); for Agonist type (glutamate receptor subtype): isolated new-born rat spinal cord; for Specific activity: relative to L-glutamic acid = 1. The protocol: In accordance with the method described in Evans, R. H. and Watkins, J. C., European J. Pharmac., 50 123-129, 1978, the minimum effective concentrations (MEC) of L-glutamic acid and compounds (1), (1a), (1b) and (1c) of the present invention for causing depolarizations of motoneurons in the isolated spinal cord of a neonatal rat under perfusion with an artificial physiological solution ([…] fluid) were measured as extracellular records in the […] root.

The conditions of series [2]: isolated from Aesculus parviflora and Blighia sapida; Fowden et al. 1969; cited from earlier work.
The mark [3] stands for this setting: isolated neonatal rat spinal cord perfused with artificial physiological solution, (-) = Ineffective.

For the compound `N[C@H](C(=O)O)[C@H]1C[C@@H]1C(=O)O` [(1a), (2S,3S,4S)-carboxycyclopropylglycine], in series [1], the “Effect of Mg++ ions on depolarizing activity” value is listed as “Unaffected” and the “Agonist type (glutamate receptor subtype)” value is on record as “agonist of the kainate type”. Further, the minimal effective concentration in series [1] (setting [3]) turned out to be 50 µM. This compound came in with a Specific activity in series [1] ((-) = Ineffective) of 5. For the same compound, the Undesired effects entry in series [2] is “hypoglycemia and vomiting”.
Take `N[C@@H](CCC(=O)O)C(=O)O` [L-Glu, L-glutamic acid, reference compound]: in series [1] (Rattus norvegicus), the minimal effective concentration amounted to 100 µM. The compound further registered a Specific activity in series [1] ((-) = Ineffective) of 1.
In the case of `N[C@H](C(=O)O)[C@H]1C[C@H]1C(=O)O` [(1c), (2S,3S,4R)-carboxycyclopropylglycine], the minimal effective concentration in series [1] (setting [3]) was 500 µM. The compound also displayed a Specific activity in series [1] ((-) = Ineffective) of 0.5. Further, the Undesired effects result in series [2] was “hypoglycemia and vomiting”.
On to `N[C@H](C(=O)O)[C@@H]1C[C@@H]1C(=O)O` [Compound (1), (2S,3R,4S)-carboxycyclopropylglycine], for which the “Potency relative to NMDA” value in series [1] (compared with NMDA activity of 2×10^-5 molar) is 5 times. Also, in series [1], the “Effect of Mg++ ions on depolarizing activity” value is “activity disappeared” and the “Agonist type (glutamate receptor subtype)” value is “agonist of the NMDA type”. The minimal effective concentration in series [1] (setting [3]) was 1 µM. The Specific activity in series [1] ((-) = Ineffective) is 100.
